Drawing on BindingDB's records for doi:10.1016/j.bioorg.2006.11.002 (The Josip Juraj Strossmayer University, 2007), this text covers Kd and IC50 for twelve compounds.

In assay [1] the target is T1, Dipeptidyl peptidase 3 (Homo sapiens, UniProt Q9NY33).
T1 sequence (Q9NY33 whole entry): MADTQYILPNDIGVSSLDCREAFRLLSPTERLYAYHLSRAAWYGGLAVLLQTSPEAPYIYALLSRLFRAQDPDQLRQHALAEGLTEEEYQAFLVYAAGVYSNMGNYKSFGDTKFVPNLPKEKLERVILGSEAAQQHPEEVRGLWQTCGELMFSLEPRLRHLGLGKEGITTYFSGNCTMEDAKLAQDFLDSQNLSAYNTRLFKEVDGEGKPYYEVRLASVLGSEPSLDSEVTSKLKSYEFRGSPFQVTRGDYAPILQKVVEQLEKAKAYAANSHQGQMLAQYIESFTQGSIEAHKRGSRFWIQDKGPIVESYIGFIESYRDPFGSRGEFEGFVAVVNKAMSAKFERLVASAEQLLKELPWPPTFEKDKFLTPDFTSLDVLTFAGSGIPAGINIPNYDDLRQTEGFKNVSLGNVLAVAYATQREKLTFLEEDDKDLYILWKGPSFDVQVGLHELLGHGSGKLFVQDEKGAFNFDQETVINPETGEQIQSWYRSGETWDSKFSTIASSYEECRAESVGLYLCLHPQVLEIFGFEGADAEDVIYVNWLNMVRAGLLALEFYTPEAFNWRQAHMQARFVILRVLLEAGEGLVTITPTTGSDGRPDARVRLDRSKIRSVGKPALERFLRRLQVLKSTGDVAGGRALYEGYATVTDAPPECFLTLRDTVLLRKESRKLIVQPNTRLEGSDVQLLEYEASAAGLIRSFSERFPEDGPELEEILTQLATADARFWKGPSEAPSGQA
Description: Enzyme Inhibition Assay. The conditions noted are these: pH 7.4; 25 °C.

In assay [2] the target is T1, Dipeptidyl peptidase 3. Description: Enzyme Inhibition Assay. The note with it: pH 7.4; 25 °C. The text has this: The IC50 value is defined as the concentration of an inhibitor with caused 50% reduction of the enzyme activity under specific condition. The principle of these assay with synthetic 2-naphthylamide substrates is based on the absorbance at 530nm of a chromophoric complex formed by the reaction product 2-naphthylamine with Fast Blue B salt.
This is another data set of the same source.

Structures are written as SMILES.

One may read the Kd as a measure of binding affinity in units of concentration. The term IC50 denotes the concentration that gives 50% inhibition. Higher therefore signals weaker potency in that assay. At Dipeptidyl peptidase 3 [1], `c1ccc(C2C(c3nc4ccc(C5=NCCN5)cc4[nH]3)C(c3ccccc3)C2c2nc3ccc(C4=NCCN4)cc3[nH]2)cc1` (stereo not drawn) [2,4-Disubstituted-1,3-di-(5-amidino-2-benzoimidazolyl)-cyclobutane hydrochoride, 1'] showed a dissociation constant Kd of 0.2 µM. Moreover, on Dipeptidyl peptidase 3 [2], half-maximal inhibition (IC50) required 2.8 µM.
Compound `N=C(N)c1ccc2nc(C3C(c4ccccc4)C(c4nc5ccc(C(=N)N)cc5[nH]4)C3c3ccccc3)[nH]c2c1` (stereo not drawn) [2,4-Disubstituted-1,3-di-(5-amidino-2-benzoimidazolyl)-cyclobutane hydrochoride, 2'] gave a concentration for half-maximal inhibition (IC50) against Dipeptidyl peptidase 3 [2] of 5.6 µM.
Same read-out and setting: then `CC(C)N=C(N)c1ccc2nc(C3C(c4ccccc4)C(c4nc5ccc(C(=N)NC(C)C)cc5[nH]4)C3c3ccccc3)[nH]c2c1` (stereo not drawn) [2,4-Disubstituted-1,3-di-(5-amidino-2-benzoimidazolyl)-cyclobutane hydrochoride, 3'], with above 10 µM.
On the same count and under the same terms, then `Clc1ccccc1C1C(c2nc3ccc(C4=NCCN4)cc3[nH]2)C(c2ccccc2Cl)C1c1nc2ccc(C3=NCCN3)cc2[nH]1` (stereo not drawn) [2,4-Disubstituted-1,3-di-(5-amidino-2-benzoimidazolyl)-cyclobutane hydrochoride, 4'], with above 1.7 µM; and `N=C(N)c1ccc2nc(C3C(c4ccccc4Cl)C(c4nc5ccc(C(=N)N)cc5[nH]4)C3c3ccccc3Cl)[nH]c2c1` (stereo not drawn) [2,4-Disubstituted-1,3-di-(5-amidino-2-benzoimidazolyl)-cyclobutane hydrochoride, 5'], with 7 µM.
Still for that read-out and setting: then `CC(C)N=C(N)c1ccc2nc(C3C(c4ccccc4Cl)C(c4nc5ccc(C(=N)NC(C)C)cc5[nH]4)C3c3ccccc3Cl)[nH]c2c1` (stereo not drawn) [2,4-Disubstituted-1,3-di-(5-amidino-2-benzoimidazolyl)-cyclobutane hydrochoride, 6'], with 6 µM.
For `c1coc(C2C(c3nc4ccc(C5=NCCN5)cc4[nH]3)C(c3ccco3)C2c2nc3ccc(C4=NCCN4)cc3[nH]2)c1` (stereo not drawn) [2,4-Disubstituted-1,3-di-(5-amidino-2-benzoimidazolyl)-cyclobutane hydrochoride, 7'], inhibition on Dipeptidyl peptidase 3 [2] was half-maximal at 8 µM (IC50).
Still for that read-out and setting: under `c1csc(C2C(c3nc4ccc(C5=NCCN5)cc4[nH]3)C(c3cccs3)C2c2nc3ccc(C4=NCCN4)cc3[nH]2)c1` (stereo not drawn) [2,4-Disubstituted-1,3-di-(5-amidino-2-benzoimidazolyl)-cyclobutane hydrochoride, 8'] stands 10 µM.
Consider `N=C(N)c1ccc2[nH]c(-c3c[nH]cn3)nc2c1` [Benzimidazole derivative, 1], for which, on Dipeptidyl peptidase 3 [2], the IC50 was 53 µM.
For `c1ncc(-c2nc3cc(C4=NCCN4)ccc3[nH]2)[nH]1` [Benzimidazole derivative, 2], half-maximal inhibition against Dipeptidyl peptidase 3 [2] (IC50) required 18 µM.
On the same count and under the same terms, under `C(=Cc1nc2ccc(C3=NCCN3)cc2[nH]1)c1ccccc1` [Benzimidazole derivative, 3] stands 10 µM.
Turning to `C(=C\c1nc2ccccc2[nH]1)/c1ccccc1` [Benzimidazole derivative, 4], at Dipeptidyl peptidase 3 [2], the concentration for half-maximal inhibition (IC50) is above 100 µM.
